# Legend:
# Assay type in all cases: in vivo, Zea mays
# Corn seed (Hughes 5813) = assay: Seed treatment with ABA and stimulators of guanylate cyclase, cold damage during germination
# Description: Corn seed (Hughes 5813) was treated with sodium ABA salt as described under Example 3. ABA rates of 0 and 20 ug/seed were applied either alone or with compounds that are selective and potent activators of soluble guanylate cyclase in animal and plant cells. These agent are YC-1 (3-(5′-hydroxymethyl-2′-furyl)-1-benzylindazole) and BAY 41-2272 (5-cyclopropyl-2-[1-(2-fluoro-benzyl)-1H-pyrazolo[3,4-b]pyridine-3-yl]pyrimidin-4-ylamine).
# [1] = tested on: Corn ("Hughes High" variety) seedlings; assay: Dip treatment of 2-day old corn seedlings, cold damage after 0° C. for 4 days (rolled towels); conditions: for Adventitious root growth (%) / Destroyed roots (%) / Lethal shoot (%): ~30 s, 0° C. 4 days, scored 3 days later
# Description: Corn (“Hughes High” variety) was germinated in the dark in moist rolled towels at 25° C. for 2 days. Seedlings were selected that were undamaged, with a radicle of 1-2 cm and a coleoptile of 0.5 to 1 cm in length. Solutions in water with 5% ethanol were made with different concentrations of ABA and PBI-429. The seedlings were dipped in the solutions with gentle agitation for approximately 30 seconds and drained. The seedlings were placed on moist towels, gently rolled and held at 18° C. for 16 hours. Then the rolled towels were packed in ice for four days. After the chilling period, the rolled towels were blotted to remove excess water and transferred to a 25° C. chamber. Seedling damage was scored 3 days later. Lethal injury of the shoot consisted of either destruction of the mesocotyl or splitting or reduction of the coleoptile judged sufficient to prevent emergence of seedlings in the field (although this trial was conducted in towels). Seedlings with destroyed roots had no living primary or seminal roots. Seedlings with adventitious root growth from the mesocotyl were counted.
# [2] = tested on: "Hughes High" hybrid corn seed; assay: Seed treatment with ABA, cold damage (ice, 4 days) during germination in moist towels; conditions: 48 h at 25° C., then ice 4 days
# Description: ABA was applied to corn seed at 0, 1, 5, 25 and 125 g/cwt (seed weight basis). The ABA was first converted to the sodium salt to render it soluble before making up the experimental seed treatment slurries. The treatments were made up in 3 ml samples of an aqueous slurry. All of the seed treatment slurry samples contained CF-Clear film-forming agent and Colorcoat Red (Becker Underwood), each at loz/cwt, and 0.167 oz/cwt Maxim XL fungicide (Syngenta). The slurry application volume was 20 oz/cwt (cwt=100 lbs of seed). One hundred gram samples of “Hughes High” hybrid corn seed were treated with the experimental slurries using a Hege 11 seed treater with a six-inch bowl.
# Three replications of 50 seeds each were planted were planted in moist towels and germinated in the dark at 25° C. for 48 hours. The rolled towels were then packed in ice for 4 days. After the cold period the towels were blotted and germination continued until the seedlings were large enough so that each seedling could be scored. In the case of the 125 g rate, this took 2 weeks. Seedling organs were scored independently for damage to the primary root, seminal roots, mesocotyl, coleoptile and the scutellar node.
# Corn seed (Hughes 1883) [3] = assay: Soil test, standard delayed chilling (severe chilling after 2 days germination); conditions: for Strong seedlings (%) / Viable seedlings (%): soil, 2 days germination, then 1° C. 4 days
# Description: (§1) Corn seed (Hughes 1883) was treated with ABA ammonium salt as described under Example 2. ABA rates of 0, 5, 10 and 25 g/cwt were applied.
# (§2) The seed was planted in plastic boxes containing lkg of typical agricultural silt loam. Fifty seeds were planted 3 cm deep in each plastic box, and the soil in the box was adjusted to 23% soil moisture (wet-weight basis). Two replications of the experiment were performed. Two kinds of cold tolerance assays were conducted, “standard delayed chilling” and “chilling at spiking.” The boxes for the standard delayed chilling were […] and transferred to 1° C. for four days. Boxes for the “chilling at spiking” treatment were allowed to germinate at 25° C. until the coleoptiles were first observed emerging from the soil. This common point of development varied from 3 to 6 days depending upon the dose of ABA. Then these boxes too were transferred to the 1° C. chamber for four days.
# (§3) After the cold treatment the boxes were moved to the 25° C. chamber for one week. The soil was washed from the seedlings and each seedling scored for damage as described under Example 2. “Viable seedlings” were seedlings capable of surviving under typical field conditions.
# Corn seed (Hughes 1883) [4] = assay: Soil test, chilling at spiking (chilling at point of initial emergence); conditions: for Strong seedlings (%) / Viable seedlings (%): soil, 1° C. 4 days applied at initial emergence (spiking)
# Description: as §1, §2, §3
# [5] = Bay 41-2272 1 μg/seed, ABA 0 μg/seed
# [6] = Bay 41-2272 10 μg/seed, ABA 0 μg/seed
# [7] = ABA (sodium salt) seed treatment 1 g/cwt
# [8] = ABA (sodium salt) seed treatment 5 g/cwt
# [9] = ABA (sodium salt) seed treatment 25 g/cwt
# [10] = ABA (sodium salt) seed treatment 125 g/cwt
# [11] = ABA ammonium salt seed treatment 5 g/cwt
# [12] = ABA ammonium salt seed treatment 10 g/cwt
# [13] = ABA ammonium salt seed treatment 25 g/cwt
# [14] = ABA (sodium salt) 20 μg/seed alone, sGC activator 0 μg/seed
compound,measurement,setting,value
"Nc1nc(-c2nn(Cc3ccccc3F)c3ncccc23)ncc1C1CC1 [Bay 41-2272, 5-cyclopropyl-2-[1-(2-fluoro-benzyl)-1H-pyrazolo[3,4-b]pyridine-3-yl]pyrimidin-4-ylamine]",Percent Strong Seedlings,Corn seed (Hughes 5813); [5],1%
same,Percent Viable Seedlings,Corn seed (Hughes 5813); [5],65%
same,Percent Strong Seedlings,Corn seed (Hughes 5813); [6],0%
same,Percent Viable Seedlings,Corn seed (Hughes 5813); [6],64%
"OCc1ccc(-c2nn(Cc3ccccc3)c3ccccc23)o1 [YC-1, 3-(5′-hydroxymethyl-2′-furyl)-1-benzylindazole]",Percent Strong Seedlings,"Corn seed (Hughes 5813); YC-1 1 μg/seed, ABA 0 μg/seed",0%
same,Percent Viable Seedlings,"Corn seed (Hughes 5813); YC-1 1 μg/seed, ABA 0 μg/seed",44%
same,Percent Strong Seedlings,"Corn seed (Hughes 5813); YC-1 10 μg/seed, ABA 0 μg/seed",4%
same,Percent Viable Seedlings,"Corn seed (Hughes 5813); YC-1 10 μg/seed, ABA 0 μg/seed",46%
S-(+)-abscisic acid [ABA],Adventitious root growth (%),[1]; ABA dip 10 ppm,7%
same,Destroyed roots (%),[1]; ABA dip 10 ppm,86%
same,Lethal shoot (%),[1]; ABA dip 10 ppm,62%
same,Adventitious root growth (%),[1]; ABA dip 100 ppm,20%
same,Destroyed roots (%),[1]; ABA dip 100 ppm,84%
same,Lethal shoot (%),[1]; ABA dip 100 ppm,47%
same,Adventitious root growth (%),[1]; ABA dip 1000 ppm,89%
same,Destroyed roots (%),[1]; ABA dip 1000 ppm,48%
same,Lethal shoot (%),[1]; ABA dip 1000 ppm,11%
same,Protection of seedlings from cold injury (in words),[1]; applied to the seedling prior to cold stress,"can provide protection from injury, and stimulate adventitious root growth"
same,Seedlings with lethal root injury (%),[2]; [7],23.3%
same,Seedlings with lethal shoot injury (%),[2]; [7],19.3%
same,Strong seedlings (%),[2]; [7],18.0%
same,Seedlings with lethal root injury (%),[2]; [8],0.7%
same,Seedlings with lethal shoot injury (%),[2]; [8],8.0%
same,Strong seedlings (%),[2]; [8],88.7%
same,Seedlings with lethal root injury (%),[2]; [9],0.0%
same,Seedlings with lethal shoot injury (%),[2]; [9],15.5%
same,Strong seedlings (%),[2]; [9],95.3%
same,Seedlings with lethal root injury (%),[2]; [10],0.7%
same,Seedlings with lethal shoot injury (%),[2]; [10],11.4%
same,Strong seedlings (%),[2]; [10],81.3%
same,Strong seedlings (%),Corn seed (Hughes 1883) [3]; [11],53%
same,Viable seedlings (%),Corn seed (Hughes 1883) [3]; [11],99.5%
same,Strong seedlings (%),Corn seed (Hughes 1883) [3]; [12],96%
same,Viable seedlings (%),Corn seed (Hughes 1883) [3]; [12],99.5%
same,Strong seedlings (%),Corn seed (Hughes 1883) [3]; [13],100%
same,Viable seedlings (%),Corn seed (Hughes 1883) [3]; [13],100%
same,Protection from cold in field soil (in words),Corn seed (Hughes 1883) [3]; delivered as a seed treatment,protection of germinating seeds and young seedlings in field soil
same,Strong seedlings (%),Corn seed (Hughes 1883) [4]; [11],0%
same,Viable seedlings (%),Corn seed (Hughes 1883) [4]; [11],5%
same,Strong seedlings (%),Corn seed (Hughes 1883) [4]; [12],18%
same,Viable seedlings (%),Corn seed (Hughes 1883) [4]; [12],62%
same,Strong seedlings (%),Corn seed (Hughes 1883) [4]; [13],10%
same,Viable seedlings (%),Corn seed (Hughes 1883) [4]; [13],23%
same,Protection of seedlings from cold damage (in words),"Corn seed (Hughes 1883) [4]; seed treatment, chilling at spiking","results not only from delay of germination, but from induction of cold tolerance in the tissue"
same,Percent Strong Seedlings,Corn seed (Hughes 5813); [14],67%
same,Percent Viable Seedlings,Corn seed (Hughes 5813); [14],100%
